Tested on: récepteurs surrénaliens de l'angiotensine II
Assay: Displacement of radioligand [125I]-SIAII specifically bound to adrenal angiotensin II receptors (rat adrenal homogenate)
Format: binding
Conditions: 60 min, 25°C
Source text: L'affinité des produits des exemples pour les récepteurs de l'angiotensine II est évaluée par technique de déplacement d'un radioligand spécifiquement fixé sur les récepteurs surrénaliens de l'angiotensine Il, chez le rat.
Une aliquote d'un homogénat de surrénales de rat incube en présence d'une concentration unique de [^125I]-SIAII (Sar^1, Tyr^4, Ile^8 - angiotensine II), antagoniste des récepteurs de l'angiotensine II, et de deux concentrations d'agents compétiteurs (10^-5 M, 10-^7 M) durant 60 min à 25°C.
La réaction est achevée par ajout de tampon, puis rapide filtration à travers des filtres de papier de verre. La liaison non spécifique est déterminée en présence d'angiotensine Il.
Les résultats sont exprimés, pour les concentrations testées, en pourcentage de déplacement du radioligand spécifiquement fixé sur les récepteurs surrénaliens de l'angiotensine Il.

| Structure (SMILES) | % de déplacement du ligand marqué (competitor 1E-5 M, 10 µM) [%] | % de déplacement du ligand marqué (competitor 1E-7 M, 0.1 µM) [%] |
| --- | --- | --- |
| CCCCc1nn(CC(F)(F)F)c(OC(=O)N(C)C)c1Cc1ccc(-c2ccccc2-c2nn[nH]n2)cc1 [Exemple 80, (Trifluoro-2,2,2 éthyl)-1 n-Butyl-3 [(tétrazolyl-5)-2'biphényl-yl-4] méthyl-4 (N,N-diméthyl carbamoyl) oxy-5 pyrazole] | 69 | 48 |
| CCCCc1nn(C)c(OC(=O)N(C)C)c1Cc1ccc(-c2ccccc2-c2nn[nH]n2)cc1 [Exemple 82, Méthyl-1 n-Butyl-3 [(tétrazolyl-5)-2' biphényl-yl-4] méthyl-4 (N,N-diméthyl carbamoyl) oxy-5 pyrazole] | 71 | 47 |
| CCCc1nn(CC(F)(F)F)c(OCC(=O)OCC)c1Cc1ccc(-c2ccccc2-c2nn[nH]n2)cc1 [Exemple 84, ((Trifluoro-2,2,2 éthyl)-1 n-Propyl-3 [(tétrazolyl-5)-2' biphényl-yl-4]méthyl-4 pyrazol-yl-5] oxy acétate d'éthyle] | 65 | 51 |
| CCCc1nn(C)c(OC(=O)N(C)C)c1Cc1ccc(-c2ccccc2-c2nn[nH]n2)cc1 [Exemple 86, Méthyl-1 n-Propyl-3 [(tétrazolyl-5)-2' biphényl-yl-4] méthyl-4 (N,N-diméthyl carbamoyl) oxy-5 pyrazole] | 58 | 41 |
| CCCc1nn(C)c(OCCO)c1Cc1ccc(-c2ccccc2-c2nn[nH]n2)cc1 [Exemple 88, [Méthyl-1 n-Propyl-3 [(tétrazolyl-5)-2'biphényl-yl-4]méthyl-4 pyrazol-yl-5]oxy-2 éthanol] | 60 | 38 |
| CCCCc1nn(C)c(OCC(=O)OCC)c1Cc1ccc(-c2ccccc2-c2nn[nH]n2)cc1 [Exemple 90, [Méthyl-1 n-Butyl-3 [(tétrazolyl-5)-2'blphényl-yl-4]méthyl-4 pyrazol-yl-5] oxy acétate d'éthyle] | 64 | 40 |
| CCCc1nn(CC(F)(F)F)c(OCCO)c1Cc1ccc(-c2ccccc2-c2nn[nH]n2)cc1 [Exemple 92, [(trifluoro-2,2,2 éthyl)-1 n-Propyl-3 [(tétrazolyl-5)-2'biphényl-yl-4]méthyl-4 pyrazol-yl-5] oxy-2 éthanol] | 75 | 70 |
| CCCc1nn(C)c(COC)c1Cc1ccc(NC(=O)c2ccccc2S(=O)(=O)O)cc1 [Exemple 107, Acide [(Méthyl-1 n-propyl-3 méthoxy méthyl-5 pyrazol-yl-4)méthylphényl-yl-4] amino carbonyl-2 benzène sulfonlque] | 83 | 62 |
| CCCc1n[nH]c(COC)c1Cc1ccc(NC(=O)c2ccccc2S(=O)(=O)O)cc1 [Exemple 108, Acide [(n-propyl-3 méthoxy méthyl-5 pyrazol-yl-4)méthylphényl-yl-4] amino carbonyl-2 benzène sulfonique] | 86 | 19 |
| CCCc1nn(C)c(CO)c1Cc1ccc(NC(=O)c2ccccc2S(=O)(=O)O)cc1 [Exemple 115, Acide [(méthyl-1 n-propyl-3 hydroxy méthyl-5 pyrazol-yl-4)méthylphényl-yl-4] amino carbonyl-2 benzène sulfonique] | 80 | 57 |
| CCCc1n[nH]c(CO)c1Cc1ccc(NC(=O)c2ccccc2S(=O)(=O)O)cc1 [Exemple 116, Acide ((n-Propyl-3 hydroxy méthyl-5 pyrazol-yl-4)méthylphényl-yl-4] amino carbonyl-2 benzène sulfonique] | 82 | 12 |
| CCCc1nn(C)c(COC)c1Cc1ccc(-c2ccccc2-c2nnn[nH]2)cc1 [Exemple 117, Méthyl-1 n-propyl-3 [(tétrazolyl-5)-2'biphényl-yl-4] méthyl-4 méthoxy méthyl-5 pyrazole] | 61 | 35 |
| CCCCc1nn(C)c(COC)c1Cc1ccc(-c2ccccc2-c2nnn[nH]2)cc1 [Exemple 118, Méthyl-1 n-Butyl-3 [(tétrazolyl-5)2' biphényl-yl-4] méthyl-4 méthoxy méthyl-5 pyrazole] | 67 | 35 |
| CCCCc1nn(CC(F)(F)F)c(COC)c1Cc1ccc(-c2ccccc2-c2nnn[nH]2)cc1 [Exemple 119, (Trifluoro-2,2,2 éthyl)-1 n-butyl-3 [(tétrazolyl-5)-2' biphényl-yl-4] méthyl-4 méthoxy méthyl-5 pyrazole] | 70 | 54 |
| CCCCc1nn(C)c(OCC(=O)N2CCOCC2)c1Cc1ccc(NC(=O)c2ccccc2NS(=O)(=O)C(F)(F)F)cc1 [Exemple 130, N-[[Méthyl-1 n-Butyl-3 [(trifluoro méthyl sulfonyl amino-2 benzoyl)amino-4 benryl]-4 pyrazol-yl-5]oxyacétyl] morpholine] | 74 | 33 |
| CCCc1nn(C)c(OCC(=O)OC)c1Cc1ccc(-c2ccccc2NS(=O)(=O)C(F)(F)F)cc1 [Exemple 135, [Méthyl-1 n-Propyl-3 (trifluoro méthyl sulfonyl amlmo-2'blphényl-yl-4)méthyl-4 pyrazol-yl-5] oxy acétatede méthyle] | 65 | 34 |
| CCCc1nn(C)c(OCCO)c1Cc1ccc(-c2ccccc2C(=O)O)cc1 [Exemple 137, [Méthyl-1 n-Propyl-3 (carboxy-2'blphényl-yl-4)méthyl-4 pyrazol-yl-5]oxy-2 éthanol] | 63 | 5 |
| CCCc1nn(C)c(OCC(=O)OCC)c1Cc1ccc(-c2ccsc2-c2nnn[nH]2)cc1 [Exemple 141, [Méthyl-1 n-propyl-3 [[(tétrazolyl-5)-2 thiényl-3]-4 benzyl]-4 pyrazol-yl-5] oxy acétate d'éthyle] | 64 | 9 |
| CCCc1nn(C)c(OCCO)c1Cc1ccc(-c2ccsc2C(=O)O)cc1 [Exemple 145, [Méthyl-1 n-Propyl-3 [(carboxy-2 thiényl-3)-4 benzyl]-4 pyrazol-yl-5] oxy-2 éthanol] | 53 | 0 |

Source: patent publication EP0449699A2, “Pyrazole derivatives as angiotensin II-receptor antagonists, process for their preparation and pharmaceutical compositions containing them” (LABORATOIRES UPSA, priority 1990, dated 1991)
